One test addresses 5-HT1A (Homo sapiens, UniProt P08908). The test can be described thus: BRET signaling assay: 5-HT1A-mediated activation of heterotrimeric Gi1 (TRUPATH, HEK293-T).
For the next test, the target named is 5-HT2A (Homo sapiens, UniProt P28223). The test can be described thus: cell-based.
Test [1] addresses T1, human 5-HT1A (Homo sapiens, UniProt P08908).
T1 sequence (P08908 1-422): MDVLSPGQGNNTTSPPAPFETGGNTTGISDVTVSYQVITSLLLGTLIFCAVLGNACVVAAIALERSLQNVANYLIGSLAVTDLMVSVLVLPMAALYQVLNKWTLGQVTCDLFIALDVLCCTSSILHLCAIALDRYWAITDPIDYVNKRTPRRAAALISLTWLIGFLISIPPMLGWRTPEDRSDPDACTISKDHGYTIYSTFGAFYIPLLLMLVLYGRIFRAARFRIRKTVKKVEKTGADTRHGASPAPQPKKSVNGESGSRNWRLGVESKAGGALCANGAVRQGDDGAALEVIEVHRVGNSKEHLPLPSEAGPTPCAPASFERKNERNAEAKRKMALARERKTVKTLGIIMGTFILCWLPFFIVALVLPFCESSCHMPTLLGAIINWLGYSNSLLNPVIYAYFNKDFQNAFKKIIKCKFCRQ
Kind of test: cell-based.

The target of test [2] is T1, human 5-HT1A. Kind of test: 5-HT1A-mediated cAMP reduction assay (GloSensor, HEK293-T).
Where [3] appears, read: EC50 (nM) Mean Gio(cAMP)-1A, Table 2.
The mark [4] stands for this setting: Activity (5-HT1A cAMP) EC50 (nM), Table 5.

“And” between values parts separate entries of the source, which are not always exact repeats. Identical values can stand only once. Like-named read-outs stand apart in the source and are kept apart here.

What is called Emax is the greatest response seen or fitted, relative to the assay's reference. In general, EC50 refers to the midpoint of the concentration-response curve.

Chain of 5-HT2A (P28223 whole entry): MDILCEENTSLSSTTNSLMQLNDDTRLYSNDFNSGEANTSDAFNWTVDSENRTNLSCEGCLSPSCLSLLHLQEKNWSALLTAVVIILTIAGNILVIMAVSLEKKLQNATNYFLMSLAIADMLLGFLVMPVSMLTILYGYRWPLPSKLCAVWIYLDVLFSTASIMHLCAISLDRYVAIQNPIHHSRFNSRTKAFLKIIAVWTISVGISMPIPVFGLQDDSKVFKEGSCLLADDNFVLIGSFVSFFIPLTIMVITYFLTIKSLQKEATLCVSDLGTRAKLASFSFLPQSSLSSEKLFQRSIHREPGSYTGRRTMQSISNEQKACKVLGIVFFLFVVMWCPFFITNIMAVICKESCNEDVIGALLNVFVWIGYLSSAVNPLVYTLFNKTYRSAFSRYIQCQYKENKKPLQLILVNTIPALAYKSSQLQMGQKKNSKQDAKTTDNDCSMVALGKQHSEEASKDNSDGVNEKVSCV

Consider `O=C1CCc2ccc(OCCCCN3CCN(c4cccc(Cl)c4Cl)CC3)cc2N1` [Aripiprazole, aripiprazole, reference compound], for which the Emax on 5-HT1A (HEK-293T, read-out: Emax, 5-HT1A-mediated activation of Gi1 (BRET)) was 77.1%. For the same compound, the “Efficacy as %5HT 5-HT1A BRET Gi1” value on 5-HT1A (Table 6, commercial ligands) was determined as 77.1 %5HT.
At 5-HT1A (EC50 (nM), Gi1 BRET, 5-HT1A WT), `CN(C)CCc1c[nH]c2ccc(O)cc12` [Bufotenine (5-OH-DMT), Bufotenine, reference compound] returned an EC50 of 9.29 nM.
On to `CN(C)CCc1c[nH]c2ccccc12` [Compound 1], for which the EC50 at 5-HT2A was 94.4 nM and 93.3 nM.
On to `CCN(C)CCc1c[nH]c2ccccc12` [Compound 2], for which, on human 5-HT1A [1], the midpoint of the response, the EC50, lay at 302 nM.
Same read-out and setting: as for `CC(C)N(C)CCc1c[nH]c2ccccc12` [Compound 3], the figure is 1980 nM; as for `CC(C)N(CCc1c[nH]c2ccccc12)C(C)C` [Compound 4], 1330 nM.
In the case of `COc1ccc2[nH]cc(CCN3CCCCC3)c2c1` [Compound 5-MeO-PipT, 5-methoxypiperidinyl-tryptamine], the EC50 at 5-HT1A (read-out: Gi BRET EC50) turned out to be 88.5 nM. The “loss of potency at 5-HT1A” value on 5-HT1A (relative to 5-MeO-PyrT) is reported as around 42 fold.
As to `c1ccc2c(CCN3CCCC3)c[nH]c2c1` [Compound 5], the EC50 on human 5-HT1A [1] turned out to be 19.1 nM.
Same read-out and setting: as for `c1ccc2c(CCN3CCCCC3)c[nH]c2c1` [Compound 6], the figure is 485 nM.
As to `C1=CC2CCC1CN2CCc1c[nH]c2ccccc12` (stereo not shown) [Compound 7], it took 15500 nM to reach a half-maximal effect at human 5-HT1A [1] (EC50).
At 5-HT1A (Gi BRET EC50), `CCN(CC)CCc1c[nH]c2ccc(OC)cc12` [Compound 11, 5-MeO-DET] yielded an EC50 of 37.1 nM.
Take `COc1ccc2[nH]cc(CCN3C[C@H]4C=C[C@@H]3CC4)c2c1F` [Compound 14]: a half-maximal response at human 5-HT1A [2] (setting [3]) (EC50) required 173 nM.
In the case of `CC[C@H]1C[C@@H]2C=C[C@H]1N(CCc1c[nH]c3ccc(OC)c(F)c13)C2` [Compound 15], the EC50 on human 5-HT1A [2] (setting [3]) turned out to be 47.3 nM; at human 5-HT1A [2] (pEC50 Gio(cAMP)-1A, Table 2) it was 46.8 nM.
Turning to `C=CCN(CC=C)CCc1c[nH]c2ccc(OC)cc12` [Compound 17], a half-maximal effect at human 5-HT1A [1] (EC50) was put at 4.66 nM.
`CCN(CC)CCc1c[nH]c2ccc(O)c(F)c12` [Compound 17] returned an EC50 on human 5-HT1A [2] (setting [3]) of 0.76 nM.
Turning to `Oc1ccc2[nH]cc(CCN3CCCC3)c2c1F` [Compound 18], the EC50 at human 5-HT1A [2] (setting [3]) worked out at 0.04 nM; on human 5-HT1A [2] (pEC50 Gio(cAMP)-1A, Table 2), 0.0417 nM.
Compound `COc1ccc2[nH]cc(CCN3CCCC3C)c2c1` (stereo not shown) [Compound 19] registered an EC50 at human 5-HT1A [1] of 2.4 nM.
Compound `COc1ccc2c(c(CCN3CCCC3)cn2C)c1F` [Compound 19] had an EC50 at human 5-HT1A [2] (setting [3]) of 100 nM.
As to `COc1ccc2[nH]cc(CCn3ccnc3)c2c1` [Compound 22, 3-(2-(1H-imidazol-1-yl)ethyl)-5-methoxy-1H-indole], at human 5-HT1A [1], the response was half-maximal at 292 nM (EC50).
Same read-out and setting: as for `COc1ccc2[nH]cc(CCN3CC=CCC3)c2c1` [Compound 23, 3-(2-(3,6-dihydropyridin-1(2H)-yl)ethyl)-5-methoxy-1H-indole], the figure is 8.77 nM.
In the case of `COc1ccc2[nH]cc(CCN3C[C@H]4C=C[C@@H]3CC4)c2c1` [Compound 24], on human 5-HT1A [1], the EC50 stood at 628 nM.
For `COc1ccc2[nH]cc(CCN3CC=CC3)c2c1F` [Compound 37, 3-(2-(2,5-dihydro-1H-pyrrol-1-yl)ethyl)-4-fluoro-5-methoxy-1H-indole], the EC50 at 5-HT2A was found to be 120 nM; at human 5-HT1A [1] it was 0.00229 nM; on 5-HT1A (Gi BRET EC50) it was 0.22 nM.
Regarding `COc1ccc2[nH]cc(CCN3C[C@H]4C=C[C@@H]3CC4)c2c1F` [Compound 38, (1S,4R)-2-(2-(4-fluoro-5-methoxy-1H-indol-3-yl)ethyl)-2-azabicyclo[2.2.2]oct-5-ene], the EC50 at human 5-HT1A [1] turned out to be 173 nM.
The same measure, in the same setting: in the case of `CC[C@H]1C[C@@H]2C=C[C@H]1N(CCc1c[nH]c3ccc(OC)c(F)c13)C2` [Compound 39, (1S,4R,7S)-7-ethyl-2-(2-(4-fluoro-5-methoxy-1H-indol-3-yl)ethyl)-2-aza bicyclo[2.2.2]oct-5-ene] it was 47.3 nM and 46.8 nM; in that of `Oc1ccc2[nH]cc(CCN3CCCC3)c2c1F` [Compound 42, 4-fluoro-3-(2-(pyrrolidin-1-yl)ethyl)-1H-indol-5-ol], 0.04 nM and 0.0417 nM.
On the same count and under the same terms, in the case of `COc1ccc2c(c1)c(CCN1CCCC1)cn2C` [Compound 43, 5-methoxy-1-methyl-3-(2-(pyrrolidin-1-yl)ethyl)-1H-indole] it was 89.1 nM; in that of `COc1ccc2c(c1)c(CCN1CC=CC1)cn2C` [Compound 44, 3-(2-(2,5-dihydro-1H-pyrrol-1-yl)ethyl)-5-methoxy-1-methyl-1H-indole], 209 nM; in that of `COc1ccc2c(c1)c(CCn1cccc1)cn2C` [Compound 45, 3-(2-(1H-pyrrol-1-yl)ethyl)-5-methoxy-1-methyl-1H-indole], 6580 nM.
On the same count and under the same terms, as for `COc1ccc2c(c(CCN3CCCC3)cn2C)c1F` [Compound 46, 4-fluoro-5-methoxy-1-methyl-3-(2-(pyrrolidin-1-yl)ethyl)-1H-indole], the figure is 100 nM; as for `COc1ccc2c(c(CCN3CC=CC3)cn2C)c1F` [Compound 47, 3-(2-(2,5-dihydro-1H-pyrrol-1-yl)ethyl)-4-fluoro-5-methoxy-1-methyl-1H-indole], 2.74 nM.
As to `c1ccc(COc2ccc3[nH]cc(CCN4CCCC4)c3c2)cc1` [Compound 48, 5-(benzyloxy)-3-(2-(pyrrolidin-1-yl)ethyl)-1H-indole], a half-maximal effect at human 5-HT1A [1] (EC50) was put at 33 nM.
The same measure, in the same setting: in the case of `Oc1ccc2[nH]cc(CCN3CCCC3)c2c1` [Compound 50, 3-(2-(pyrrolidine-1-yl)ethyl)-1H-indol-5-ol] it was 0.1 nM and 0.0977 nM; in that of `Oc1ccc2[nH]cc(CCN3C[C@H]4C=C[C@@H]3CC4)c2c1` [Compound 51, 3-(2-((1S,4R)-2-azabicyclo[2.2.2]oct-5-eN-2-yl)ethyl)-1H-indol-5-ol], 149 nM; in that of `CCN(C)CCc1c[nH]c2cccc(O)c12` [Compound 53, 4-OH-MET], 769 nM.
The compound `COc1cccc2[nH]cc(CCN(C)C)c12` [Compound 54, 2-(4-methoxy-1H-indol-3-yl)-N,N-dimethylethan-1-amine] returned a half-maximal effective concentration (EC50) on human 5-HT1A [1] of 558 nM.
`COc1cccc2[nH]cc(CCN3CCCC3)c12` [Compound 55, 4-methoxy-3-(2-(pyrrolidin-1-yl)ethyl)-1H-indole] had an EC50 on human 5-HT1A [1] of 164 nM.
On to `CN(C)CCc1c[nH]c2cccc(F)c12` [Compound 57, 2-(4-fluoro-1H-indol-3-yl)-N,N-dimethylethan-1-amine], for which the EC50 on human 5-HT1A [1] was 87.7 nM.
Still for that read-out and setting: as for `Fc1cccc2[nH]cc(CCN3CCCC3)c12` [Compound 58, 4-fluoro-3-(2-(pyrrolidin-1-yl)ethyl)-1H-indole], the figure is 16.7 nM; as for `COc1ccc2c(CCN(C)C)c[nH]c2c1` [Compound 60, 2-(6-methoxy-1H-indol-3-yl)-N,N-dimethylethan-1-amine], 3240 nM.
On the same count and under the same terms, as for `COc1ccc2c(CCN3CCCC3)c[nH]c2c1` [Compound 61, 6-methoxy-3-(2-(pyrrolidin-1-yl)ethyl)-1H-indole], the figure is 492 nM; as for `COc1ccc2c(CCN3CC=CC3)c[nH]c2c1` [Compound 62, 3-(2-(2,5-dihydro-1H-pyrrol-1-yl)ethyl)-6-methoxy-1H-indole], 30.9 nM.
The same measure, in the same setting: as for `CN(C)CCc1c[nH]c2cc3c(cc12)OCO3` [Compound 63, 2-(5H-[1,3]dioxolo[4,5-f]indol-7-yl)-N,N-dimethylethan-1-amine], the figure is 64.4 nM and 64.6 nM; as for `c1[nH]c2cc3c(cc2c1CCN1CCCC1)OCO3` [Compound 64, 7-(2-(pyrrolidin-1-yl)ethyl)-5H-[1,3]dioxolo[4,5-f]indole], 3.5 nM; as for `C1=CC2CCC1CN2CCc1c[nH]c2cc3c(cc12)OCO3` (stereo not shown) [Compound 65], 9890 nM.
With `CCC1C[C@@H]2C=C[C@H]1N(CCc1c[nH]c3cc4c(cc13)OCO4)C2` (stereo partly drawn) [Compound 66, 7-(2-((1S,4R)-7-ethyl-2-azabicyclo[2.2.2]oct-5-en-2-yl)ethyl)-5H-[1,3]dioxolo[4,5-f]indole], on human 5-HT1A [1], it took 1690 nM to reach a half-maximal effect (EC50).
As for `CCN(C)CCc1c[nH]c2ccc(SC)cc12` [Compound 68, N-ethyl-N-methyl-2-(5-(methylthio)-1H-indol-3-yl)ethan-1-amine], the EC50 at human 5-HT1A [1] was 3.35 nM and 3.31 nM.
Still for that read-out and setting: as for `Cc1cccc2c(CCN(C)C)c[nH]c12` [Compound 70, N,N-dimethyl-2-(7-methyl-1H-indol-3-yl)ethan-1-amine], the figure is 1210 nM.
`CN(C)CCc1c[nH]c2ncccc12` [Compound 72, N,N-dimethyl-2-(1H-pyrrolo[2,3-b]pyridin-3-yl)ethan-1-amine] registered an EC50 on human 5-HT1A [2] (setting [4]) of 1910 nM.
On the same count and under the same terms, in the case of `CCN(CC)CCc1c[nH]c2ncccc12` [Compound 73, N,N-diethyl-2-(1H-pyrrolo[2,3-b]pyridin-3-yl)ethan-1-amine] it was 7800 nM.
On the same count and under the same terms, in the case of `c1cnc2[nH]cc(CCN3CCCC3)c2c1` [Compound 74, 3-(2-(pyrrolidin-1-yl)ethyl)-1H-pyrrolo[2,3-b]pyridine] it was 3240 nM; in that of `c1cnc2[nH]cc(CCN3CCCCC3)c2c1` [Compound 75, 3-(2-(piperidin-1-yl)ethyl)-1H-pyrrolo[2,3-b]pyridine], 18500 nM.
On the same count and under the same terms, as for `COc1ccc2occ(CCN(C)C)c2c1` [Compound 76, 2-(5-methoxybenzofuran-3-yl)-N,N-dimethylethan-1-amine], the figure is 178 nM.
